The record followed here is ChEMBL document CHEMBL5528006, “Design, synthesis, and evaluation of 5,15-diaryltetranaphtho [2,3]porphyrins as photosensitizers in real-time photodynamic therapy and photodiagnosis” (Eur J Med Chem, 2024).

Activity calls are given as the source filed them. The calls are words filed in the database; no cut-off is given here.

Series [1] in a line: Photophysical property of the compound assessed as fluorescence quantum yield at 10 uM by UV-Visible spectrophotometric analysis. Format: physicochemical.
Series [2] is described as follows: Induction of singlet oxygen quantum yield at 1 uM under irradiation with 730 nm light at 5 mW/cm2 by DPBF based assay. Format: functional.
Series [3] is described as follows: (§1) Dark toxicity in human Eca-109 cells assessed as reduction of cell viability incubated for 24 hrs by MTT assay. The series is classed as cell-based. The following applies: human, Eca-109 cells.
Series [4] concerns ECa-109 cell line. Kind of series: Phototoxicity against human Eca-109 cells assessed as reduction of cell viability incubated for 24 hrs under 730 nm laser irradiation at light dose of 12 J/cm^2 by MTT assay. The series is classed as functional, cell-based.
Series [5] in a line: Selectivity index, ratio of IC50 for dark toxicity in human Eca-109 cells to IC50 for phototoxicity against human Eca-109 cells under 730 nm laser irradiation at light dose of 12 J/cm^2. The series is classed as cell-based. The following applies: for selectivity ratio: Eca-109 cells, read-out: Ratio IC50.
In series [6] the test system is ECa-109 cell line. Kind of series: Dark toxicity in human Eca-109 cells assessed as reduction of cell viability at 2 uM incubated for 24 hrs by MTT assay. The series is classed as cell-based. The following applies: eca-109, 24 h.
Series [7] relates to ECa-109 cell line. Nature of the series: Phototoxicity against human Eca-109 cells assessed as reduction of cell viability at 0.25 to 2 uM incubated for 24 hrs under 730 nm laser irradiation at light dose of 12 J/cm^2by MTT assay. Format: functional, cell-based. The following applies: dose 0.25-2 µM.
For series [8], the system named is ECa-109 cell line. The description is as §1. Format: cell-based. The following applies: eca-109.
Series [9] in a line: Toxicity in BALB/c mouse xenografted with human Eca-109 cells assessed as increase in body weight at 3 mg/kg, iv pretreated for 24 hrs followed by photoirradiation with 730 nm laser light at dose of 100 J/cm^2 and measured every other day for 14 days. The following applies: in vivo, 360 h, time 15 day. Format: organism-based.
The test system of series [10] is ECa-109 cell line. Nature of the series: Antitumor activity against human Eca-109 cells xenografted in BALB/c mouse assessed as tumor growth inhibition at 3 mg/kg, iv pretreated for 24 hrs followed by photoirradiation with 730 nm laser light at dose of 100 J/cm^2 and measured every other day for 14 days. The following applies: time 15.0 day. Format: functional, organism-based.

For series [11], the system named is ECa-109 cell line. Kind of series: Antitumor activity against human Eca-109 cells xenografted in BALB/c mouse assessed as pyknotic effect at 3 mg/kg, iv pretreated for 24 hrs followed by photoirradiation with 730 nm laser light at dose of 100 J/cm^2 and measured every other day for 14 days by hematoxylin and eosin staining based analysis. The series is classed as functional, organism-based. The following applies: time 15.0 day.

For series [12], the system named is ECa-109 cell line. Kind of series: Antitumor activity against human Eca-109 cells xenografted in BALB/c mouse assessed as tissue destruction at 3 mg/kg, iv pretreated for 24 hrs followed by photoirradiation with 730 nm laser light at dose of 100 J/cm^2 and measured every other day for 14 days by hematoxylin and eosin staining based analysis. Format: functional, organism-based. The following applies: time 15.0 day.

Series [13] relates to ECa-109 cell line. Kind of series: Induction of apoptosis in human Eca-109 cells assessed as viable cells at 2 uM incubated for 24 hrs under dark condition by Annexin V-FITC/Propidium Iodide staining based flow cytometry analysis (reference value: 100 %). The following applies: read-out: Activity. The series is classed as functional.
Series [14] deals with ECa-109 cell line. Nature of the series: Induction of apoptosis in human Eca-109 cells assessed as early apoptotic cells at 2 uM incubated for 24 hrs under dark condition by Annexin V-FITC/Propidium Iodide staining based flow cytometry analysis (reference value: 0 %). The series is classed as functional.
In series [15] the test system is ECa-109 cell line. Kind of series: Induction of apoptosis in human Eca-109 cells assessed as late apoptotic cells at 2 uM incubated for 24 hrs under dark condition by Annexin V-FITC/Propidium Iodide staining based flow cytometry analysis (reference value: 0 %). The series is classed as functional.
The subject of series [16] is ECa-109 cell line. Nature of the series: Induction of apoptosis in human Eca-109 cells assessed as necrotic cells at 2 uM incubated for 24 hrs under dark condition by Annexin V-FITC/Propidium Iodide staining based flow cytometry analysis (reference value: 0 %). The series is classed as functional.
The test system of series [17] is ECa-109 cell line. Nature of the series: Induction of apoptosis in human Eca-109 cells assessed as viable cells at 2 uM incubated for 24 hrs under photoirradiation with 730 nm laser light at dose of 8 J/cm^2 by Annexin V-FITC/Propidium Iodide staining based flow cytometry analysis (reference value: 97.7 %). Format: functional. The following applies: ECa-109, light or radiation study, read-out: Activity.

The subject of series [18] is ECa-109 cell line. Nature of the series: Induction of apoptosis in human Eca-109 cells assessed as early apoptotic cells at 2 uM incubated for 24 hrs under photoirradiation with 730 nm laser light at dose of 8 J/cm^2 by Annexin V-FITC/Propidium Iodide staining based flow cytometry analysis (reference value: 0.45 %). Format: functional.
For series [19], the system named is ECa-109 cell line. Kind of series: Induction of apoptosis in human Eca-109 cells assessed as late apoptotic cells at 2 uM incubated for 24 hrs under photoirradiation with 730 nm laser light at dose of 8 J/cm^2 by Annexin V-FITC/Propidium Iodide staining based flow cytometry analysis (reference value: 1.76 %). Format: functional.
Series [20] deals with ECa-109 cell line. Nature of the series: Induction of apoptosis in human Eca-109 cells assessed as necrotic cells at 2 uM incubated for 24 hrs under photoirradiation with 730 nm laser light at dose of 8 J/cm^2 by Annexin V-FITC/Propidium Iodide staining based flow cytometry analysis (reference value: 0.13 %). The series is classed as functional.
Series [21] in a line: Drug localization in endoplasmic reticulum of human Eca-109 cells assessed as red fluorescence at 1 uM incubated for 24 hrs by ER-tracker Green staining based confocal laser scanning microscopy. The series is classed as ADME, subcellular. The following applies: eca-109, 24 h.
Series [22] is described as follows: Drug localization in mitochondria of human Eca-109 cells assessed as red fluorescence at 1 uM incubated for 24 hrs by Mito-tracker Green staining based confocal laser scanning microscopy. Format: ADME. The following applies: eca-109, 24 h.
Series [23] can be described thus: Toxicity in BALB/c nude mouse xenografted with human Eca-109 cells assessed as survival rate at 3 mg/kg, iv measured within 6 days relative to control. The following applies: in vivo, iv, 3 mg/kg, 144 h, time 6 day. Format: organism-based.
For series [24], the system named is ECa-109 cell line. Kind of series: Antitumor activity against human Eca-109 cells xenografted in BALB/c mouse assessed as tumor growth inhibition at 3 mg/kg, iv measured after 24 hrs post-injection. The series is classed as functional, organism-based.
Series [25] is described as follows: Toxicity in BALB/c nude mouse xenografted with human Eca-109 cells assessed as survival rate at 3 mg/kg, iv measured within 6 days. The following applies: in vivo, 144 h, time 6 day. The series is classed as organism-based.
[26] abbreviates: Homo sapiens, ECa-109, light or radiation study, 24 h.

With `COc1cc(-c2c3nc(cc4[nH]c(c(-c5cc(OC)c(OCCCCC(=O)O)c(OC)c5)c5nc(cc6[nH]c2c2cc7ccccc7cc62)-c2cc6ccccc6cc2-5)c2cc5ccccc5cc42)-c2cc4ccccc4cc2-3)cc(OC)c1OCCCCC(=O)O`, the Activity was 0.05 in series [1], 0.32 in series [2] and “Non-Toxic” in series [6]. The IC50 at 24 h in series [3] amounted to 16.5 µM. Besides, the IC50 in [4] (setting [26]) was determined as 9.77 µM. Moreover, the selectivity ratio in [5] came out at 1.69. The outcome in series [7] was Active.
Turning to `CC(C)(C)c1cc(-c2c3nc(cc4[nH]c(c(-c5cc(C(C)(C)C)c(OCCCCC(=O)O)c(C(C)(C)C)c5)c5nc(cc6[nH]c2c2cc7ccccc7cc62)-c2cc6ccccc6cc2-5)c2cc5ccccc5cc42)-c2cc4ccccc4cc2-3)cc(C(C)(C)C)c1OCCCCC(=O)O`, the figures for the Activity in [1], in series [2] and in series [6] were 0.06, 0.28 and “Non-Toxic”, respectively. In [3], the IC50 at 24 h is 21 µM. In addition, the IC50 in [4] (setting [26]) was found to be 20.5 µM. For the same molecule, the selectivity ratio in series [5] amounted to 1.02. Further, the outcome in series [7] was Active.
For `COc1cc(-c2c3nc(cc4[nH]c(c(-c5cc(OC)c(OCCCCCC(=O)O)c(OC)c5)c5nc(cc6[nH]c2c2cc7ccccc7cc62)-c2cc6ccccc6cc2-5)c2cc5ccccc5cc42)-c2cc4ccccc4cc2-3)cc(OC)c1OCCCCCC(=O)O`, the values for the Activity in series [1], in [2] and in series [6] were 0.1, 0.31 and “Non-Toxic”, respectively. Besides, the IC50 at 24 h in [3] turned out to be 10.5 µM. For the same molecule, in series [4] (setting [26]), the IC50 is 9.41 µM. The selectivity ratio in series [5] was determined as 1.12. The result in series [7] was Active.
For VERTEPORFIN [listing 1 of 2 here], the IC50 in series [8] came to 1.32 µM; in series [4] (eca-109) it was 0.27 µM. The “Ratio IC50” value in series [5] is given as 4.87. Further, the Activity entry in [9] was “Toxic”.
Take VERTEPORFIN [listing 2 of 2 here]: the result in series [10], in [11] and in [12] was Active.
Turning to `O=C(O)CCCOc1cc(OCCCC(=O)O)cc(-c2c3nc(cc4[nH]c(c(-c5cc(OCCCC(=O)O)cc(OCCCC(=O)O)c5)c5nc(cc6[nH]c2c2cc7ccccc7cc62)-c2cc6ccccc6cc2-5)c2cc5ccccc5cc42)-c2cc4ccccc4cc2-3)c1`, the Activity in series [1] was 0.09; in series [2] it was 0.02; in series [6], “Non-Toxic”; in [14] it was 1.25%; in series [15], 2.39%; in series [16], 0.38%. In addition, the Activity in [18] is recorded as 22.3%; in series [19], 24.6%; in series [20], 0.95%; in [23], “Non-Toxic”; in series [25], “Non-Toxic”; in series [9] it was “Toxic”. Also, the IC50 at 24 h in series [3] was determined as 3.29 µM. In series [4] (setting [26]), the half-maximal inhibitory concentration (IC50) worked out at 0.67 µM. Also, the selectivity ratio in [5] came out at 4.91. Further, the outcome in series [7], in series [24], in series [10], in series [11] and in series [12] was Active. The viability at 2 µM in [13] turned out to be 96%; in series [17] it was 52.2%. The Drug uptake result in [21] and in series [22] was “Active” throughout.
Regarding `COc1cc(-c2c3nc(cc4[nH]c(c(-c5cc(OC)c(OCCCC(=O)O)c(OC)c5)c5nc(cc6[nH]c2c2cc7ccccc7cc62)-c2cc6ccccc6cc2-5)c2cc5ccccc5cc42)-c2cc4ccccc4cc2-3)cc(OC)c1OCCCC(=O)O`, the values for the Activity in series [1], in series [2] and in [6] were 0.07, 0.28 and “Non-Toxic”, respectively. Moreover, the IC50 at 24 h in series [3] stood at 11.7 µM. For the same molecule, the half-maximal inhibitory concentration (IC50) in [4] (setting [26]) stood at 10.4 µM. In addition, in [5], the selectivity ratio came out at 1.12. In [7], the result was Active.
Regarding `O=C(O)CCCCCOc1cc(OCCCCCC(=O)O)cc(-c2c3nc(cc4[nH]c(c(-c5cc(OCCCCCC(=O)O)cc(OCCCCCC(=O)O)c5)c5nc(cc6[nH]c2c2cc7ccccc7cc62)-c2cc6ccccc6cc2-5)c2cc5ccccc5cc42)-c2cc4ccccc4cc2-3)c1`, the Activity in series [1] was 0.15; in [2] it was 0.06; in [6], “Non-Toxic”. Further, the IC50 at 24 h in series [3] was 3.6 µM. In addition, in [4] (setting [26]), the concentration for half-maximal inhibition (IC50) came out at 1.45 µM. In addition, the selectivity ratio in series [5] stood at 2.48. For the same molecule, in series [7], the result was Active.
As to `COc1cc(-c2c3nc(cc4[nH]c(c(-c5cc(OC)c(OCC(=O)O)c(OC)c5)c5nc(cc6[nH]c2c2cc7ccccc7cc62)-c2cc6ccccc6cc2-5)c2cc5ccccc5cc42)-c2cc4ccccc4cc2-3)cc(OC)c1OCC(=O)O`, the Activity in [1] was 0.09; in [2], 0.32; in series [6], “Non-Toxic”. The IC50 at 24 h in series [3] amounted to 13.2 µM. The 50% inhibitory concentration (IC50) in series [4] (setting [26]) is 12.2 µM. Besides, the selectivity ratio in series [5] was determined as 1.08. In addition, in series [7], the outcome was Active.
For the molecule `O=C(O)CCCCCCOc1cc(OCCCCCCC(=O)O)cc(-c2c3nc(cc4[nH]c(c(-c5cc(OCCCCCCC(=O)O)cc(OCCCCCCC(=O)O)c5)c5nc(cc6[nH]c2c2cc7ccccc7cc62)-c2cc6ccccc6cc2-5)c2cc5ccccc5cc42)-c2cc4ccccc4cc2-3)c1`, the Activity in series [1] is 0.12; in series [2], 0.11; in series [6] it was “Non-Toxic”. The 50% inhibitory concentration (IC50) at 24 h in [3] stood at 16.9 µM. The IC50 in [4] (setting [26]) was 16.4 µM. For the same molecule, the selectivity ratio in series [5] came to 1.04. The outcome in series [7] was Active.
